Source: patent publication US20050080113A1, “Medicinal compositions” (priority 2001, published 2005)

Test system: TNF-α production in THP-1 cells
Assay: Measurement of inhibitory activity of TNF-α production (LPS-stimulated THP-1 cells, ELISA), Reference Example K 2
Assay type: cell-based
Conditions: Homo sapiens, Reference Example H compounds, LPS 5 μg/mL, 4 hours, read-out: IC50 (inhibition of TNF-α production)
Experimental: THP-1 cells cultured in a PRMI 1640 medium (Life Technologies, Inc., USA) containing 1% inactivated fetal bovine serum (Life Technologies, Inc.) and 10 mM HEPES (pH 7.5) were inoculated on a 96 well plate to give 1×10^5 cells/well, then, 1 μL of a sample compound dissolved in DMSO was added. After incubation for 1 hour at 37° C. in a CO2 incubator, LPS (Wako Pure Chemical Industries Ltd.) was added to give a final concentration of 5 μg/mL. After incubation for 4 hours at 37° C. in a CO2 incubator, the supernatant was obtained by centrifugal separation. The TNF-α concentration in the supernatant was measured by ELISA (R&D Systems, Quantikine Kit). The concentration (IC50 value) of a sample compound necessary for inhibiting 50% of TNF-α production was calculated by PRISM 2.01 (GraphPad Software).

| SMILES | IC50 [µM] |
| --- | --- |
| Cc1cccc(-c2nc(N(C)C(=O)c3ccc(C)nc3)sc2-c2ccnc(NC3CCCC3)c2)c1 [46-4] | 0.082 |

Target: T1, human p38 MAP kinase (Homo sapiens, UniProt Q16539)
T1 construct: made in house; host or cells: Sf-21 insect cells, baculovirus (BAC-HP38 co-infected with BAC-caMKK3)
Assay: Measurement of the p38 MAP kinase inhibitory activity, 32P uptake into Myelin Basic Protein (Reference Example F 2)
Assay type: biochemical
Conditions: active form p38 MAP kinase, 30° C. 60 minutes, read-out: IC50 (p38 MAP kinase inhibitory activity, uptake of 32P into acid insoluble fraction)
Experimental: The genetic manipulations described below were according to the methods described in the book (Maniatis et al., Molecular Cloning, Cold Spring Harbor Laboratory, 1989) or a method described in the protocol attached to the reagent.
(1) Cloning of Human p38 MAP Kinase Gene and Preparation of Recombinant Baculovirus
Cloning of human p38 MAP kinase gene was performed by a PCR method using a primer set P38 U: 5′-[…]-3′ [SEQ ID NO:9] and PAG-L: 5′-[…]-3′ [SEQ ID NO:10] made by reference to the base sequence of p38 MAP kinase gene reported by Han et al. (Science 265 (5173), 808 811 (1994)) and employing kidney cDNA (Toyobo, QUICK-Clone cDNA) as a template.
A PCR reaction was performed by a Hot Start method using AmpliWax PCR Gem 100 (Takara Shuzo). As the lower mixed solution, 2 μL 10×LA PCR Buffer, 3 μL 2.5 mM dNTP solution, each 2.5 μL of 12.5 μM primer solution, and 10 μL sterile distilled water were mixed. As the upper mixed solution, 1 μL human cardiac cDNA (1 ng/mL) as a template, 3 μL 10×LA PCR Buffer, 1 μL 2.5 mM dNTP solution, 0.5 μL TaKaRa LA Taq DNA polymerase (Takara Shuzo), and 24.5 μL sterile distilled water were mixed. One AmpliWax PCR Gem 100 (Takara Shuzo) was added to the prepared lower mixed solution to treat at 70° C. for 5 minutes and for 5 minutes in an ice and, thereafter, the upper mixed solution was added to prepare a reaction solution for PCR. A tube containing the reaction solution was set at a thermal cycler (Perkin Elmer), which was treated at 95° C. for 2 minutes. Further, after repeating 35 times a cycle of 15 seconds at 95° C. and 2 minutes at 68° C., treatment was performed at 72° C. for 8 minutes. The resulting PCR product was subjected to agarose gel (1%) electrophoresis, 1.1 kb DNA fragment containing p38 MAP kinase gene was recovered from the gel and, thereafter, which was inserted into pT7Blue-T vector (Takara Shuzo) to make the plasmid pHP38.
The 4.8 kb XhoI-KpnI fragment of the plasmid pFASTBAC1 (CIBCOBRL) and the 1.1 kb XhoI-Kpn fragment of the above plasmid pHP38 were ligated to make the plasmid pFBHP38.
The plasmid pFBHP38 and BAC-TO-BAC Baculovirus Expression System (GIBCOBRL) were used to prepare the recombinant Baculovirus virusstock BAC-HP38.
(2) Cloning of Human MKK3 Gene and Preparation of Recombinant Baculovirus
Cloning of human MKK3 gene was performed by a PCR method using a primer set MKK-U: 5′-[…]-3′ [SEQ ID NO:11] and MKK-L: 5′-[…]-3′ [SEQ ID NO:12] made by reference to the base sequence of MKK3 gene reported by Derijard, B. et al., Science 267 (5198), 682 685 (1995) and using kidney cDNA (Toyobo, QUICK-Clone cDNA).
A PCR reaction was performed by a Hot Start method using AmpliWax PCR Gem 100 (Takara Shuzo). As the lower mixed solution, 2 μL 10×LA PCR Buffer, 3 μL 2.5 mM dNTP solution, each 2.5 μL of 12.5 μM primer solution, and 10 μL sterile distilled water were mixed. As the upper mixed solution, 1 μL human kidney cDNA (1 ng/mL), 3 μL 10×LA PCR Buffer, 1 μL 2.5 mM dNTP solution, 0.5 μL TaKaRa LA taq DNA polymerase (Takara Shuzo) and 24.5 μL sterile distilled water were mixed. One AmpliWax PCR Gem 100 (Takara Shuzo) was added to the prepared lower mixed solution to treat at 70° C. for 5 minutes and for 5 minutes in ice and, thereafter, the upper mixed solution was added to prepare a reaction solution for PCR. A tube containing the reaction solution was set at a thermal cycler (Perkin Elmer), which was treated at 95° C. for 2 minutes. Further, after repeating 35 times a cycle of 15 seconds at 95° C. and 2 minutes at 68° C., treatment was performed at 72° C. for 8 minutes. The resulting PCR product was subjected to agarose gel (1%) electrophoresis, 1.0 kb DNA fragment containing MKK3 gene was recovered from the gel and, thereafter, which was inserted into pT7Blue-T vector (Takara Shuzo) to make the plasmid pHMKK3. […]

T1 sequence (Q16539 whole entry): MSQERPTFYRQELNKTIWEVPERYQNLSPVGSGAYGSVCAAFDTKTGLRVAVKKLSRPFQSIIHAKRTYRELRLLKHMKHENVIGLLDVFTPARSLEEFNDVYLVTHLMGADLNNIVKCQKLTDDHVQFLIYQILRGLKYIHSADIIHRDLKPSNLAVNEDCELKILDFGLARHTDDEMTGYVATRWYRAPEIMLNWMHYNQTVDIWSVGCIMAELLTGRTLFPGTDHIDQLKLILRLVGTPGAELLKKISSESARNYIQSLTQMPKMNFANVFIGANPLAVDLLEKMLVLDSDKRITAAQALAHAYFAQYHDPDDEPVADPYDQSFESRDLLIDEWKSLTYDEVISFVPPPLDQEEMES

| SMILES | IC50 [µM] |
| --- | --- |
| Cc1cc(C)cc(-c2nc(N)sc2-c2ccnc(OCc3ccccc3)c2)c1 [D 1, [4-(3,5-dimethylphenyl)-5-(2-phenylmethyloxy-4-pyridyl)-1,3-thiazol-2-yl]amine] | 0.43 |
| COc1ccc(-c2nc(NC(=O)c3ccccc3)sc2-c2ccnc(NC(=O)c3ccccc3)c2)cc1 [D 2, N-[4-[2-benzoylamino-4-(4-methoxyphenyl)-1,3-thiazol-5-yl]-2-pyridyl]benzamide] | 0.063 |
| Cc1cc(C)cc(-c2nc(N)sc2-c2ccnc(NC(=O)c3ccccc3)c2)c1 [D 5, N-[4-[2-amino-4-(3,5-dimethylphenyl)-1,3-thiazol-5-yl]-2-pyridyl]benzamide] | 0.029 |

Target: CYP3A4 (Homo sapiens, UniProt P08684)
Assay: Measurement of CYP3A4 inhibitory activity (testosterone 6β-hydroxylation), Example 3
Assay type: in vitro ADME
Conditions: CYP3A4 enzyme preparation with control microsomes, pH 7.4, probe testosterone (100 μM; 6β-hydroxylation), CYP3A4, test substance 10 μM, 100 μM testosterone, 37° C. 30 min, read-out: inhibitory rate (%) at 10 μM
Experimental: 10 pmol/mL CYP3A4, 100 μM testosterone, 1/10 volume of the reaction mixture of NADPH generating system and test substance (10 μM) were added to a 50 mM phosphate buffer (pH 7.4) and control microsome was added to adjust the final concentration of protein to 1.0 mg/mL. The reaction mixture was prepared and reacted at 37° C. for 30 min. (amount of total reaction solution 100 μL). The reaction was quenched by the addition of 100 μL of acetonitrile. After stirring, 100 μL of distilled water was added and the mixture was further stirred. A supernatant obtained by centrifugation (15000 rpm) for 10 min. was injected to HPLC by 80 μL and concentration of 6 β-hydroxytestosterone produced by the reaction was measured.
For preparation of the NADPH generating system, 1 volume of 50 mM NADP (β-nicotinamide adenine dinucleotide oxidized type), 1 volume of 0.5 M glucose-6 phosphate, 5 volumes of 0.1 M magnesium chloride, 1 volume of 150 unit/mL glucose-6-phosphate […] and 2 volumes of distilled water were mixed.

CYP3A4, sequence (P08684 whole entry): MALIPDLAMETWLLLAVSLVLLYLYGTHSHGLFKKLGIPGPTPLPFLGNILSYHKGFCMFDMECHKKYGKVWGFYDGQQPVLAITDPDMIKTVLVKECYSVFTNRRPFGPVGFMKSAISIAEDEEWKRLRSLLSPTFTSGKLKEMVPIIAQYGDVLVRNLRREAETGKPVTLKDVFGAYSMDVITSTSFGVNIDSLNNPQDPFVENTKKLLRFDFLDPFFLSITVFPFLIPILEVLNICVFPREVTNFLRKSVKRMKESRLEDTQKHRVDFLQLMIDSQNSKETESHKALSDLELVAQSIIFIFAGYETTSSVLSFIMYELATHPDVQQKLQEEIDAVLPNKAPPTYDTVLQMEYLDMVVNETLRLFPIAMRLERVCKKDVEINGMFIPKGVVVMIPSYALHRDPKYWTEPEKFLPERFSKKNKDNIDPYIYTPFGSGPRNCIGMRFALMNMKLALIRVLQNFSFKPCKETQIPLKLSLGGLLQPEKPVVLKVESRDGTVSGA

| SMILES | inhibition at 30 min, 10 μM [%] |
| --- | --- |
| CCc1nc(-c2cccc(C)c2)c(-c2ccnc(NCCCc3ccccc3)c2)s1 [D 19-4, N-[4-[2-ethyl-4-(3-methylphenyl)-1,3-thiazol-5-yl]-2-pyridyl]-N-(3-phenylpropyl)amine] | < 30 |
| CCc1nc(-c2cccc(C)c2)c(-c2ccnc(F)c2)s1 [H 11, 2-ethyl-5-(2-fluoro-4-pyridyl)-4-(3-methylphenyl)-1,3-thiazole] | < 30 |
| CCc1nc(-c2cccc(C)c2)c(-c2ccnc(C)c2)s1 [H 13, 2 ethyl-4 (3 methylphenyl)-5 (2 methyl-4 pyridyl)-1,3 thiazole] | < 30 |
| CCc1nc(-c2cccc(C)c2)c(-c2ccnc(N)c2)s1 [H 22, 4-[2-ethyl-4-(3-methylphenyl)-1,3-thiazol-5-yl]-2-pyridylamine] | < 30 |
| CCc1nc(-c2cccc(C)c2)c(-c2ccnc(NC(C)=O)c2)s1 [H 29-2, N-[4-[2-ethyl-4-(3-methylphenyl)-1,3-thiazol-5-yl]-2-pyridyl]acetamide] | < 30 |
| CCc1nc(-c2cccc(C)c2)c(-c2ccnc(Cl)c2)s1 [H 69, 5 (2 chloro-4 pyridyl)-2 ethyl-4 (3 methylphenyl)-1,3-thiazole] | < 30 |
